One data set has as its target T1, human GLP-1 receptor (Homo sapiens, UniProt P43220).
T1 construct: expressed in transfected cells
The data set is described as follows: Stimulation of human GLP1 receptor stable transgenic cell line CHO-K1/GLP-1R/CRE-luc to produce cAMP (HTRF). Particulars: cAMP production, CHO-K1/GLP-1R/CRE-luc cells, 30 minutes incubation, 0.5 mM IBMX. Type of data set: cell-based. An excerpt: I. Determination of the Ability of the Compound of the Present Invention to Stimulate Human GLP1 Receptor Stable Transgenic Cell Lines to Produce cAMP
The purpose of this test example is to determine the ability of the compound to activate the human GLP-1 receptor on the cell surface. The EC50 that stimulates […] after agonism characterizes the compound's ability to activate the human GLP-1 receptor.
The frozen human GLP1 receptor stable transgenic cell line CHO-K1/GLP-1R/CRE-luc was taken from the liquid nitrogen tank, quickly thawed in a 37° C. water bath, resuspended with DMEM/F12 medium, centrifuged, and washed once. The cells were resuspended with the experimental buffer, namely DMEM/F12 medium containing 0.1% casein, and the experimental buffer was used to adjust the cell density. The cells were spread on spread on a 384-well plate at a density of 2500 cells/5 μL/well, and then to each well was added 2.5 μL of buffer-prepared IBMX working solution with a final concentration of IBMX of 0.5 mM, and 2.5 μL of the compound sample with gradient dilution (starting at 1000 nM, 3-fold dilution, 11 concentrations). The plate was centrifuged at 1000 rpm for 1 minute, shaken for 30 seconds to mix well, and incubated at room temperature for 30 minutes. Detection was performed using the Cisbio cAMP—Gs Dynamic kit. cAMP-d2 and Anti-cAMP-Eu^3+-Cryptate were diluted 20-fold with cAMP Lysis & Detection Buffer, respectively, and mixed well. To each well was added 5 μL diluted cAMP-d2 solution, and then added 5 μL diluted Anti-cAMP-Eu3^+-Cryptate solution. The plate was shaken for 30 seconds, and incubated at room temperature for 1 hour in the dark. The signal reading of HTRF was performed using the Biotek Synergy H1 microplate reader with an excitation wavelength of 320 nm and emission wavelengths of 620 nm and 665 nm.
The signal ratio (665 nm/620 nm*10,000) was calculated, and the signal ratio and sample concentration were nonlinearly fitted using a four-parameter equation in GraphPad Prism 6 to obtain the EC50 value.
(In general: In TR-FRET formats the signal depends on donor and acceptor labels being close together.)

The test system of data set [1] is GLP-1R humanized C57BL/6 mice fed with high-fat diet. Briefly: Long-term administration: body weight and ingestion of GLP-1R humanized mice fed with high-fat diet. Particulars: HFD mice; for Weight (g)-D0 Mean: Day 0 (day of first administration, baseline), 10 mg/kg oral once a day; for Weight (g)-D10 Mean / Eeight (g)-D10 Mean: Day 10, 10 mg/kg oral once a day; for Body weight change(%)-D10 Mean: Day 10 versus Day 0, 10 mg/kg oral once a day. It counts as in vivo. The source says:
The purpose of this test is to evaluate the effects of long-term administration of the compound on the body weight and ingestion of GLP-1R humanized C57BL/6 mice fed with high-fat diet.
C57BL/6_hGLP-1R, male, 5-8 weeks; 60% high-fat diet (HFD); Ultra-clean workbench; Electronic balance.
3.1 On the day of feeding with high-fat diet, C57BL/6 mice were randomly divided into two groups according to their weight. The first group was Blank, with 7 mice fed with normal control diet, while the remaining animals were in the modeling group, fed with high-fat diet, and continued until the end of the experiment.
3.2 At the 8th week of HFD feeding, the modeling group animals were randomly divided with 7 animals per group according to their weight. The first group was the Vehicle group (Vehicle: 0.5% CMC Na+1% Tween 80), which was given vehicle; The remaining group was the administration group; Administration regimen: Oral administration of the corresponding compound, administration cycle was 14 days, once a day for 14 days, with an administration dose of 10 mg/kg and an administration volume of 10 mL/kg. The Blank group continued to be fed with normal diet without any administration operation.
3.3 The day of administration was defined as Day 0.
3.4 During each administration, animals were weighed and data was recorded. Oral administration is performed according to body weight, with an administration volume of 10 mL/kg.
3.5 Starting from Day 0 of the experiment, the food intake of each group of mice was measured once every three days. Specifically, the feed was changed after each weighing and administration, and the added and remaining amounts were recorded.
3.6 On the end day of Day 14, all mice were euthanized sequentially according to grouping order, and the livers were dissected and weighed.
The weight and weight change rate of mice after administration were summarize and statistically analyzed. Weight change rate calculation: (BWt−BW0)/BW0×100%. BWt represents the weight of the mice on Day t of the experiment, and BW0 represents the weight of the mice on Day 0 of the experiment.
Calculation of food intake: (added amount (g)−remaining amount (g))/number of animals per cage, cumulative food intake is the sum of daily food intake of each animal during the administration period.
Experimental data were analyzed using GraphPad Prism software. The t-test method was used for comparison between the two groups. The one-way ANOVA method was used for comparisons between three or more groups.

The test system of data set [2] is GLP-1R humanized C57BL/6 mice. Briefly: Intraperitoneal glucose tolerance (ipGTT) after single administration in GLP-1R humanized mice. It counts as in vivo. Particulars: single administration 0.3 mg/kg, glucose 2 g/kg intraperitoneal 1 hour after administration, AUC 0-120 min, versus model control group. An excerpt:
To evaluate the effect of single administration of the compound of the present invention on blood glucose changes in the intraperitoneal glucose tolerance (ipGTT) experiment in GLP-1R humanized C57BL/6 mice.
C57BL/6_hGLP-1R, male, 5-8 weeks; Ultra-clean workbench; Electronic balance; Vitality type blood glucose meter; Glucose.
3.1 On the day before the experiment, the animals were randomly divided according to their weight, with 5 animals per group. All animals were deprived of food overnight and fasted for more than 16 hours from the time of administration.
3.2 0.2 g/mL glucose solution was prepared with pure water and filtered by 0.22 µm filter membrane for use.
3.3 On the testing day, the blood glucose value of each animal was measured successively by tail clipping method before administration, which was recorded as Baseline value;
Blood glucose test method: the mouse was placed in the immobilizer, the tail tip was disinfected with an alcohol cotton ball, then a little tail tip was cut off with scissors, the first drop of blood was discarded, and the second drop of blood was dropped onto the prepared blood glucose test strip to detect the blood glucose value;
3.4 The animals were administered according to animal weight, and the administration time was record for each animal. After 1 hour of administration, the blood glucose value of each animal was measured sequentially, and recorded as the 0 minute blood glucose value;
3.5 Subsequently, according to the weight of the day, the aminals were immediately injected with pure water or glucose solution into the abdominal cavity, with a volume of 10 mL/kg and a glucose dose of 2 g/kg;
3.6 The blood glucose values of each mouse were measured, and the time and data were recorded after 15, 30, 60, 90, and 120 minutes of pure water or glucose solution injection;
The blood glucose (BG)-time curve was drawn, and the area under the blood glucose-time curve was calculated. The calculation formula is as follows: […]
Note: BG0, BG15, BG30, BG60, BG90, and BG120 represent blood glucose values before glucose administration (0 min) and 15, 30, 60, 90, and 120 min after glucose administration, respectively.
The blood glucose decline rate of AUC at each time point was calculated according to the average blood glucose value and AUC of blood glucose at each time point.

Data set [3] can be described thus: Pharmacokinetic assay of SD rats. Type of data set: in vivo. Particulars: Sprague-Dawley, rat, po; male SD rats, plasma, dose 50 mg/kg (b1219 prints 5 mg/kg). How it is done: SD rats were used as test animals. The pharmacokinetic behavior of the following example compounds was studied in the plasma of rats administered orally at a dose of 50 mg/kg.
Vehicle formula: 0.5% CMC-Na (1% Tween 80);
Three SD rats per group, male. […]
Before and after administration, 0.2 mL of blood was collected from the jugular vein at 0, 0.25, 0.5, 1, 2, 4, 6, 8 and 24 hours, placed in EDTA-K2 tubes, centrifuged at 6000 rpm at 4° C. for 6 min to separate the plasma. The plasma samples were stored at −80° C. The […] was fed 4 hours after the administration.
• 1) 160 μL of acetonitrile was added to 40 μL of the plasma sample for precipitation, and then the mixture was centrifuged at 3500×g for 5-20 min. • 2) After the above process, 100 μL of the supernatant was taken to analyze the concentration of the test compound by LC/MS/MS.
• Liquid chromatography condition: Shimadzu LC-20AD pump Mass spectrometry condition: AB Sciex API 4000 mass spectrometer Chromatographic column: phenomenex Gemiu 5 μm C18 50×4.6 mm • Mobile phase: Eluent A was 0.1% formic acid in water, and Eluent B was methanol • Flow rate: 1.0 mL/min • Elution time: 0-4.0 minutes, the eluent is as follows:
The main pharmacokinetic parameters were calculated using WinNonlin 8.2.

For data set [4] the following is noted: early clinical practice; cited from earlier work.

Molecules are shown by their SMILES.

The text below walks through data of US20240360109A1 (SHANGHAI HANSOH BIOMEDICAL CO., LTD., priority 2021, published 2024).

T1 sequence (P43220 24-463): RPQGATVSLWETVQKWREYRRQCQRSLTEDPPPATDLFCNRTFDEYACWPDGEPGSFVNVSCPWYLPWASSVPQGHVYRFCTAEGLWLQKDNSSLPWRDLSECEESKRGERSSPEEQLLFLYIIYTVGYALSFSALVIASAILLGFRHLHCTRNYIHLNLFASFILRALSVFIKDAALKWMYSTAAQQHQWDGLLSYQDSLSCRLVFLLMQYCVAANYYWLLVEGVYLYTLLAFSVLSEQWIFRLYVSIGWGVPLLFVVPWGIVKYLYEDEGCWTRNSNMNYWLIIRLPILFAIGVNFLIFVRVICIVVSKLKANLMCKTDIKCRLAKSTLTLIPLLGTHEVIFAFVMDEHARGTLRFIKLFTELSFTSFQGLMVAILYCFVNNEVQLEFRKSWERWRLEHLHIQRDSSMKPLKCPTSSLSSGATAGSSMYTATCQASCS

One may read the EC50 as the concentration giving half of the maximal effect. For the molecule `[2H]C([2H])([2H])Oc1cc(Cl)ccc1[C@@]1([2H])C=C(F)c2cccc(C3CCN(Cc4nc5ccc(C(=O)O)nc5n4C[C@@H]4CCO4)CC3)c2O1` [Example 41, 2-((4-((R)-2-(4-Chloro-2-(methoxy-d3)phenyl)-4-fluoro-2H-chromen-8-yl-2-d)piperidin-1-yl)methyl)-3-(((S)-oxetan-2-yl)methyl)-3H-imidazolo[4,5-b]pyridine-5-carboxylic acid], the half-maximal effective concentration (EC50) on human GLP-1 receptor is 0.04 nM. Further, in data set [1] (the 3rd table), the “Weight (g)-D0 Mean” value stood at 28.54 g, the “Weight (g)-D10 Mean” value was found to be 26.20 g and the “Body weight change(%)-D10 Mean” value is −8.19%. Further, the “Blood glucose decline rate of AUC %” value in data set [2] came to 53.09%.

`[2H][C@]1(c2ccc(Cl)cc2F)C=Cc2cccc(C3CCN(Cc4nc5ccc(C(=O)O)nc5n4C[C@@H]4CCO4)CC3)c2O1` [Example 42, 2-((4-((R)-2-(4-Chloro-2-fluorophenyl)-2H-chromen-8-yl-2-d)piperidin-1-yl)methyl)-3-(((S)-oxetan-2-yl)methyl)-3H-imidazolo[4,5-b]pyridine-5-carboxylic acid]: on human GLP-1 receptor, the EC50 was 0.07 nM. In addition, in data set [1] (the 3rd table), the “Weight (g)-D0 Mean” value came out at 28.54 g, the “Weight (g)-D10 Mean” value is 26.04 g and the “Body weight change(%)-D10 Mean” value was −8.75%. Also, the “Blood glucose decline rate of AUC %” value in data set [2] is listed as 56.79%.

`[2H]C([2H])([2H])Oc1cc(Cl)ccc1[C@@]1([2H])C=Cc2cccc(C3CCN(Cc4nc5ccc(C(=O)O)nc5n4C[C@@H]4CCO4)CC3)c2O1` [Example 43, 2-((4-((R)-2-(4-Chloro-2-(methoxy-d3)phenyl)-2H-chromen-8-yl-2-d)piperidin-1-yl)methyl)-3-(((S)-oxetan-2-yl)methyl)-3H-imidazolo[4,5-b]pyridine-5-carboxylic acid]: the EC50 at human GLP-1 receptor was determined as 0.05 nM. In data set [1] (the 4th table), the “Weight (g)-D0 Mean” value amounted to 28.37 g, the “Eeight (g)-D10 Mean” value stood at 26.57 g and the “Body weight change(%)-D10 Mean” value was −6.37%. Moreover, in data set [2], the “Blood glucose decline rate of AUC %” value was determined as 46.57%.

The AUC(0-inf) is total exposure, with the tail of the curve extrapolated. A low value points to less exposure. As a reminder, the AUC(0-t) is exposure summed from dosing to a finite time, without extrapolation to infinity. Low readings indicate less exposure, high ones more exposure. As a reminder, the Cmax is the highest concentration seen after dosing. For orientation: Tmax means the time at which the peak concentration occurs. One may read the half-life as the time needed for the level to fall by half in the phase considered. A low value points to rapid decline. Consider `O=C(O)c1ccc2nc(CN3CCC(c4cccc5c4O[C@@H](c4ccc(Cl)cc4F)C=C5)CC3)n(C[C@@H]3CCO3)c2n1` [Example 48, 2-((4-((R)-2-(4-Chloro-2-fluorophenyl)-2H-chromen-8-yl)piperidin-1-yl)methyl)-3-(((S)-oxetan-2-yl)methyl)-3H-imidazolo[4,5-b]pyridine-5-carboxylic acid], for which, in data set [3], the total exposure AUC(0-inf) was determined as 19100 ng·h/mL, the AUC(0-t) worked out at 19100 ng·h/mL, the Cmax is 6400 ng/mL and the Tmax was 2 h. In data set [3], the half-life is 3.8 h. Besides, the EC50 at human GLP-1 receptor turned out to be 0.03 nM. In data set [1] (the 4th table), the “Weight (g)-D0 Mean” value is listed as 28.23 g, the “Eeight (g)-D10 Mean” value stood at 25.85 g and the “Body weight change(%)-D10 Mean” value is listed as −8.44%. The “Blood glucose decline rate of AUC %” value in data set [2] was determined as 62.89%.

`N#Cc1ccc(COc2cccc(C3CCN(Cc4nc5ccc(C(=O)O)cc5n4C[C@@H]4CCO4)CC3)n2)c(F)c1` [PF-06882961]: the “hypoglycemic and weight reducing effects” value in data set [4] was “significant hypoglycemic and weight reducing effects”.
